Biological target: T1, hCRTH2 (Homo sapiens, UniProt Q9Y5Y4)
T1 construct: expressed in transfected cells; host or cells: HEK (human embryonic kidney) cells expressing hCRTH2; membrane preparation
T1 sequence (Q9Y5Y4 1-395): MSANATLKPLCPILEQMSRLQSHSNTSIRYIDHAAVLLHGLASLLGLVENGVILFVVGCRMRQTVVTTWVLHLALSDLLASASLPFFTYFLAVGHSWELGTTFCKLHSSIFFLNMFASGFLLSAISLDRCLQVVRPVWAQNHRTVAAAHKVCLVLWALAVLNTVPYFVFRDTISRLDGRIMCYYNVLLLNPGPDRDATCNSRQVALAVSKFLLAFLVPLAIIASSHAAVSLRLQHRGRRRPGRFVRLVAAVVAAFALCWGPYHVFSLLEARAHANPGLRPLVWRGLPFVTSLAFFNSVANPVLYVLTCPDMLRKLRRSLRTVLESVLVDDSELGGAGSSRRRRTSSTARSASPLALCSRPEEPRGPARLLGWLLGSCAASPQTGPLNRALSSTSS
Test: Radioligand binding assay ([3H]PGD2 competition, HEK-hCRTH2 membranes)
Settings: [3H]PGD2 binding
Description: Biological Assays Radioligand Binding Assay.
Radioligand binding assays were performed at room temperature in 50 mM Tris-HCl pH 7.4, 1 mM EDTA containing 2 mM MnCl2 and 3.0 nM [^3H]PGD2 (New England Nuclear, Boston, Mass.) (171 Ci mmol^−1), in a final volume of 0.2 mL. Competing ligands were diluted in dimethylsulfoxide (Me2SO) that was kept constant at 1% (v/v) of the final incubation volume. The reaction was initiated by the addition of 8-20 μg of membrane protein prepared from a human embryonic kidney (HEK)-hCRTH2 cell line. Total and non-specific binding were determined in the absence and the presence of 10 μM PGD2, respectively. […] The reaction was routinely conducted for 60 min at room temperature and terminated by rapid filtration through prewetted (0.3% polyethyleneimine) 96-well printed Filtermate™ (Wallac) using a Tomtec® harvester (Hamden, Conn.). After washing with cold buffer, the filter was dried for 2 minutes in microwave, and Meltilex Scintillator sheet (Wallac) was melted on for 2 min. The radioactivity was measured with Betaplate model 1205 (Wallac).

SMILES | Ki (rated A-E (Table A)) | Ki (values in text)
C[C@@H](NC(=O)c1cnc2nc(-c3ccccc3)c(CCCCC(=O)O)nc2c1)c1ccccc1 [14F, 5-(3-phenyl-7-{[(1R)-1-phenylethyl]carbamoyl}pyrido[2,3-b]pyrazin-2-yl)pentanoic acid] | 20.1 to 200 nM | 
CC(NC(=O)c1cnc2nc(-c3ccccc3)c(CCCCC(=O)O)nc2c1)c1ccncc1 (stereo not shown) [14H, 5-{3-phenyl-7-[(1-pyridin-4-ylethyl)carbamoyl]pyrido[2,3-b]pyrazin-2-yl} pentanoic acid] | 20.1 to 200 nM | 
O=C(O)CCCCc1nc2cc(C(=O)Nc3ccccc3)ccc2nc1-c1ccccc1 [15AA, 5-[3-phenyl-7-(phenylcarbamoyl)quinoxalin-2-yl] pentanoic acid] | 20.1 to 200 nM | 
O=C(O)CCCCc1nc2cc(C(=O)NCc3ccncc3)ccc2nc1-c1ccccc1 [15AH, 5-{3-phenyl-7-[(pyridin-4-ylmethyl)carbamoyl]quinoxalin-2-yl} pentanoic acid] | 20.1 to 200 nM | 
O=C(O)CCCCc1nc2cc(C(=O)N3CCCCC3c3ccccc3)ccc2nc1-c1ccccc1 (stereo not shown) [15AJ, 5-{3-phenyl-7-[(2-phenylpiperidin-1-yl)carbonyl]quinoxalin-2-yl}pentanoic acid] | 2.1 to 20 nM | 
O=C(O)CCCCc1nc2cc(C(=O)N3CCC(c4ccccc4)C3)ccc2nc1-c1ccccc1 (stereo not shown) [15AK, 5-{3-phenyl-7-[(3-phenylpyrrolidin-1-yl)carbonyl]quinoxalin-2-yl}pentanoic acid] | 2.1 to 20 nM | 
O=C(O)CCCCc1nc2cc(C(=O)NC3(c4ccccc4)CCC3)ccc2nc1-c1ccccc1 [15AM, 5-{3-phenyl-7-[(1-phenylcyclobutyl)carbamoyl]quinoxalin-2-yl}pentanoic acid] | 2.1 to 20 nM | 
O=C(O)CCCCc1nc2cc(C(=O)N3CCN(c4ccccc4)CC3)ccc2nc1-c1ccccc1 [15AN, 5-{3-phenyl-7-[(4-phenylpiperazin-1-yl)carbonyl]quinoxalin-2-yl}pentanoic acid] | 2.1 to 20 nM | 
O=C(O)CCCCc1nc2cc(C(=O)N3CCc4ccccc4C3)ccc2nc1-c1ccccc1 [15AP, 5-[7-(3,4-dihydroisoquinolin-2(1H)-ylcarbonyl)-3-phenylquinoxalin-2-yl]pentanoic acid] | 2.1 to 20 nM | 
O=C(O)CCCCc1nc2cc(C(=O)NC3c4ccccc4CC3O)ccc2nc1-c1ccccc1 (stereo not shown) [15AQ, 5-{7-[(2-hydroxy-2,3-dihydro-1H-inden-1-yl)carbamoyl]-3-phenylquinoxalin-2-yl}pentanoic acid] | 2.1 to 20 nM | 
CCNC(=O)c1ccc2nc(-c3ccccc3)c(CCCCC(=O)O)nc2c1 [15AS, 5-[7-(ethylcarbamoyl)-3-phenylquinoxalin-2-yl]pentanoic acid] | 2.1 to 20 nM | 
COc1ccc(C(C)NC(=O)c2ccc3nc(-c4ccccc4)c(CCCCC(=O)O)nc3c2)cc1 (stereo not shown) [15AU, 5-(7-{[1-(4-methoxyphenyl)ethyl]carbamoyl}-3-phenyl-quinoxalin-2-yl) pentanoic acid] | 2.1 to 20 nM | 
C[C@@H](NC(=O)c1ccc2nc(-c3ccccc3)c(CCCCC(=O)O)nc2c1)c1ccc(Cl)cc1 [15AX, 5-(7-{[(1R)-1-(4-chlorophenyl)ethyl]carbamoyl}-3-phenyl-quinoxalin-2-yl)pentanoic acid] | 2.1 to 20 nM | 3 nM
Cc1ccc([C@@H](C)NC(=O)c2ccc3nc(-c4ccccc4)c(CCCCC(=O)O)nc3c2)cc1 [15AY, 5-(7-{[(1R)-1-(4-methylphenyl)ethyl]carbamoyl}-3-phenyl-quinoxalin-2-yl)pentanoic acid] | 2.1 to 20 nM | 
CCc1ccc(CNC(=O)c2ccc3nc(-c4ccccc4)c(CCCCC(=O)O)nc3c2)cc1 [15AZ, 5-{7-[(4-ethylbenzyl)carbamoyl]-3-phenylquinoxalin-2-yl}pentanoic acid] | 2.1 to 20 nM | 
C[C@H](NC(=O)c1ccc2nc(-c3ccccc3)c(CCCCC(=O)O)nc2c1)c1ccccc1 [15B, 5-(3-phenyl-7-{[(1S)-1-phenylethyl]carbamoyl}quinoxalin-2-yl) pentanoic acid] | 2.1 to 20 nM | 
N#Cc1ccc(CNC(=O)c2ccc3nc(-c4ccccc4)c(CCCCC(=O)O)nc3c2)cc1 [15BB, 5-{7-[(4-cyanobenzyl)carbamoyl]-3-phenylquinoxalin-2-yl}pentanoic acid] | 2.1 to 20 nM | 
Cc1ccc([C@H](C)NC(=O)c2ccc3nc(-c4ccccc4)c(CCCCC(=O)O)nc3c2)cc1 [15BC, 5-(7-{[(1S)-1-(4-methylphenyl)ethyl]carbamoyl}-3-phenylquinoxalin-2-yl)pentanoic acid] | 2.1 to 20 nM | 
CC(NC(=O)c1ccc2nc(-c3ccccc3)c(CCCCC(=O)O)nc2c1)c1ccc(OC(F)(F)F)cc1 (stereo not shown) [15BD, 5-[3-phenyl-7-({1-[4-(trifluoromethoxy)phenyl]ethyl}carbamoyl)quinoxalin-2-yl] pentanoic acid] | 2.1 to 20 nM | 
O=C(O)CCCCc1nc2cc(C(=O)N3CCCC3)ccc2nc1-c1ccccc1 [15BE, 5-[3-phenyl-7-(pyrrolidin-1-ylcarbonyl)quinoxalin-2-yl]pentanoic aicd] | 2.1 to 20 nM | 

Further lines, results first:

Ki (rated A-E (Table A)) | Ki (values in text) | SMILES
0.1 to 2 nM |  | O=C(O)CCCCc1nc2cc(C(=O)N3CCN(c4ccccc4)CC3)cnc2nc1-c1ccccc1 [14G, 5-{3-phenyl-7-[(4-phenylpiperazin-1-yl)carbonyl]pyrido [2,3-b]pyrazin-2-yl}pentanoic acid]
2.1 to 20 nM |  | C[C@@H](NC(=O)c1ccc2nc(-c3ccccc3)c(CCCCC(=O)O)nc2c1)c1ccccc1 [15A, 5-(3-phenyl-7-{[(1R)-1-phenylethyl]carbamoyl}quinoxalin-2-yl) pentanoic acid]
0.1 to 2 nM |  | O=C(O)CCCCc1nc2cc(C(=O)NCc3ccccc3F)ccc2nc1-c1ccccc1 [15AB, 5-{7-[(2-fluorobenzyl)carbamoyl]-3-phenylquinoxalin-2-yl}pentanoic acid]
0.1 to 2 nM |  | O=C(O)CCCCc1nc2cc(C(=O)NCc3cccc(F)c3)ccc2nc1-c1ccccc1 [15AC, 5-{7-[(3-fluorobenzyl)carbamoyl]-3-phenylquinoxalin-2-yl}pentanoic acid]
2.1 to 20 nM |  | O=C(O)CCCCc1nc2cc(C(=O)NCc3ccc(F)cc3)ccc2nc1-c1ccccc1 [15AD, 5-{7-[(4-fluorobenzyl)carbamoyl]-3-phenylquinoxalin-2-yl}pentanoic acid]
2.1 to 20 nM |  | O=C(O)CCCCc1nc2cc(C(=O)NC3(c4ccccc4)CC3)ccc2nc1-c1ccccc1 [15AE, 5-{3-phenyl-7-[(1-phenylcyclopropyl)carbamoyl]quinoxalin-2-yl}pentanoic acid]
2.1 to 20 nM |  | O=C(O)CCCCc1nc2cc(C(=O)NCc3ccccn3)ccc2nc1-c1ccccc1 [15AF, 5-{3-phenyl-7-[(pyridin-2-ylmethyl)carbamoyl]quinoxalin-2-yl} pentanoic acid]
2.1 to 20 nM |  | O=C(O)CCCCc1nc2cc(C(=O)NCc3cccnc3)ccc2nc1-c1ccccc1 [15AG, 5-{3-phenyl-7-[(pyridin-3-ylmethyl)carbamoyl]quinoxalin-2-yl} pentanoic acid]
0.1 to 2 nM |  | O=C(O)CCCCc1nc2cc(C(=O)N3CCCC3c3ccccc3)ccc2nc1-c1ccccc1 (stereo not shown) [15AL, 5-{3-phenyl-7-[(2-phenylpyrrolidin-1-yl)carbonyl]quinoxalin-2-yl}pentanoic acid]
0.1 to 2 nM | 1.6 nM | O=C(O)CCCCc1nc2cc(C(=O)NC3CCCc4ccccc43)ccc2nc1-c1ccccc1 (stereo not shown) [15AR, 5-[3-phenyl-7-(1,2,3,4-tetrahydronaphthalen-1-ylcarbamoyl)quinoxalin-2-yl]pentanoic acid]
0.1 to 2 nM |  | O=C(O)CCCCc1nc2cc(C(=O)NC3CCc4ccccc43)ccc2nc1-c1ccccc1 (stereo not shown) [15AT, 5-[7-(2,3-dihydro-1H-inden-1-ylcarbamoyl)-3-phenylquinoxalin-2-yl]pentanoic acid]
0.1 to 2 nM |  | O=C(O)CCCCc1nc2cc(C(=O)NCc3ccc(OC(F)(F)F)cc3)ccc2nc1-c1ccccc1 [15AV, 5-(3-phenyl-7-{[4-(trifluoromethoxy)benzyl]carbamoyl}quinoxalin-2-yl)pentanoic acid]
0.1 to 2 nM |  | Cc1ccc(CNC(=O)c2ccc3nc(-c4ccccc4)c(CCCCC(=O)O)nc3c2)cc1 [15AW, 5-{7-[(4-methylbenzyl)carbamoyl]-3-phenylquinoxalin-2-yl}pentanoic acid]
0.1 to 2 nM | 1.9 nM | O=C(O)CCCCc1nc2cc(C(=O)N3CCC(c4ccccc4)CC3)ccc2nc1-c1ccccc1 [15Ai, 5-{3-phenyl-7-[(4-phenylpiperidin-1-yl)carbonyl]quinoxalin-2-yl}pentanoic acid]
0.1 to 2 nM | 1 nM | CN(Cc1ccccc1)C(=O)c1ccc2nc(-c3ccccc3)c(CCCCC(=O)O)nc2c1 [15Ao, 5-{7-[benzyl(methyl)carbamoyl]-3-phenylquinoxalin-2-yl}pentanoic acid]
0.1 to 2 nM |  | COc1ccc(CNC(=O)c2ccc3nc(-c4ccccc4)c(CCCCC(=O)O)nc3c2)cc1 [15BA, 5-{7-[(4-methoxybenzyl)carbamoyl]-3-phenylquinoxalin-2-yl}pentanoic acid]

— patent US9469615B2, “Quinoxalines and AZA-quinoxalines as CRTH2 receptor modulators” (Merck Sharp & Dohme Corp., priority 2010, dated 2016)
